Patent publication US20080248030A1, “Method of Treating Angiogenic Diseases” (Children's Medical Center Corporation, priority 2005, published 2008)

Tests used:
LLC = experiment: Antitumor activity on C57BL/6J mice bearing s.c. LLC; conditions: 30 mg/kg q.o.d., data not shown
VEGFR-2 = conditions: recently shown; cited from earlier work
Early mouse development = conditions: injected into 7 and 17 day-old BALB/c mice
Protocol: Free and conjugated TNP-470 were injected into 7 and 17 day-old BALB/c mice in order to test their effects on normal development.

BCE cells = experiment: Bovine capillary endothelial (BCE) cell proliferation assay; assay type: cell-based; conditions: 10 pg/ml to 1 μg/ml TNP-470-equivalent concentration, 72 h
Protocol: For the proliferation assay, cells were washed with PBS and dispersed in a 0.05% trypsin solution. Cells were suspended (15,000 cells/ml) in DMEM supplemented with 10% BCS and 1% GPS, plated onto gelatinized 24-well culture plates (0.5 ml/well), and incubated for 24 h (37° C., 10% CO2). The media was replaced with 0.25 ml of DMEM, 5% BCS and 1% GPS and the test sample applied. Cells were challenged with free or conjugated TNP-470 (10 pg/ml to 1 μg/ml TNP-470-equivalent concentration). After 30 min of incubation, media and bFGF were added to obtain a final volume of 0.5 ml of DMEM, 5% BCS, 1% GPS and 1 ng/ml bFGF. Control cells were grown with or without bFGF. After 72 hr, cells were dispersed in trypsin, resuspended in Hematall (Fisher Scientific, Pittsburgh, Pa.), and counted in a Coulter counter.

chick aortic ring = experiment: Chick aortic ring endothelial sprouting assay; assay type: cell-based; conditions: for effect on outgrowth: 100 pg/ml
Protocol: Aortic arches were dissected from day-14 chick embryos, cut into cross-sectional fragments, and implanted in vitro in Matrigel using a modification of methods previously described (V. Muthulckaruppan, personal communication). When cultured in MCDB-131 medium supplemented with 5% fetal bovine serum, endothelial cells sprouted and vascular channel formation occurred within 24-48 hours. Free or conjugated TNP-470 (10 pg/ml to 1 μg/ml) was added to the culture.

[1] = human, in vivo; cited from earlier work
human melanoma (A2058) = assay type: in vivo; conditions: Caplostatin 30 mg/kg s.c. q.o.d; Avastin 1 mg/kg i.p. twice/week
Protocol: Combination treatment was also tested on mice bearing s.c. A2058 human melanoma, PC-3M-LN4 human prostate carcinoma or COLO-205 colon carcinoma or orthotopic intracranial U87-luciferase human glioblastoma.

[2] = system: liver regeneration post hepatectomy; experiment: Hepatectomy model (liver regeneration); assay type: in vivo, C57BL/6J mice
Protocol: Male C57BL/6J mice underwent a partial hepatectomy through a midline incision after general anesthesia with isoflourane^33. Free or conjugated TNP-470 (30 mg/kg) were given s.c. every other day for 8 days beginning on the day of surgery according to the scheme described in FIG. 4a. Alternatively, the doses given were 60 mg/kg the day of surgery and 4 days later or 120 mg/kg once on the day of the partial hepatectomy. The liver was harvested on the 8th day, weighed and analyzed by histology.
This non-neoplastic model is a relatively fast (8 days) in vivo angiogenesis-dependent process^33. We employed the hepatectomy model to compare the endothelial cell inhibitory activity of free and conjugated TNP-470, because liver regeneration post hepatectomy is angiogenesis-dependent, similar to tumor growth^33,34.

A2058 human melanoma = experiment: Antitumor activity on SCID mice bearing s.c. A2058 human melanoma; assay type: in vivo; conditions: summary in conclusions, tumor models not named
Description: Each group consisted of 5 mice.

Compound | VEGFR-2 phosphorylation (VEGFR-2) | inhibition of bFGF-induced proliferation (cytostatic effect) (BCE cells) | effect on outgrowth (chick aortic ring) | TIC (human melanoma (A2058)) | further results
CO[C@@H]1[C@H](OC(=O)NC(=O)CCl)CC[C@]2(CO2)[C@H]1[C@@]1(C)O[C@@H]1CC=C(C)C [TNP-470] | inhibit VEGFR-2 phosphorylation | inhibited bFGF-induced proliferation | completely prevented outgrowth |  | induction of weight loss (LLC): did; effect on normal development (weight gain) (Early mouse development): inhibited growth, by inhibiting weight gain
COc1cccc2c1C(=O)c1c(O)c3c(c(O)c1C2=O)C[C@@](O)(C(=O)CO)C[C@@H]3O[C@H]1C[C@H](N)[C@H](O)[C@H](C)O1 [doxorubicin] |  |  |  |  | t1/2α (in words) [1]: few minutes
Avastin: recombinant humanized antibody to Vascular Endothelial Growth Factor (VEGF), Genentech |  |  |  | 0.47 | 
N-(2-lydroxypropyl)methacrylamide (HPMA) copolymer-TNP-470 conjugate [HPMA copolymer-TNP-470] | inhibit VEGFR-2 phosphorylation | inhibited bFGF-induced proliferation | completely prevented outgrowth | 029 | inhibition of liver regeneration ([2]; 60 mg/kg every four days): had an equivalent effect as the 30 mg/kg q.o.d. dosing schedule; inhibition of liver regeneration ([2]; single injection of 120 mg/kg at the day of hepatectomy): had an equivalent effect as the 30 mg/kg q.o.d. dosing schedule; T/C values for the conjugate (summary) (A2058 human melanoma): 0.12-0.14; effect on vascular sprouts (chick aortic ring; 50 pg/ml): reduced the number and length of vascular sprouts
